Assay results from PubChem BioAssay (NCI).
Values joined by “and” are separate entries in the source; they are usually repeats but may differ in a detail not shown here. Equal entries are not always repeated.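 A five-concentration, 48-hour dose response in 96-well plates underlies each endpoint, interpolated linearly between surrounding concentrations. The concentration for 50% growth inhibition is given as GI50. TGI marks complete inhibition of growth.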

Columns and labels:
Assay in all cases: inhibition of tumour cell growth, NCI panel, 48 h
786-0 renal = tested on: 786-0 renal
A549 NSCLC = tested on: A549 NSCLC
BT-549 breast = tested on: BT-549 breast
CCRF-CEM leukemia = tested on: CCRF-CEM leukemia
HL-60(TB) leukemia = tested on: HL-60(TB) leukemia
LOX IMVI melanoma = tested on: LOX IMVI melanoma
MDA-N = tested on: MDA-N
OVCAR-5 ovarian = tested on: OVCAR-5 ovarian
SF-268 CNS = tested on: SF-268 CNS
UO-31 renal = tested on: UO-31 renal

SMILES | TGI (786-0 renal) | TGI (A549 NSCLC) | TGI (BT-549 breast) | TGI (CCRF-CEM leukemia) | TGI (HL-60(TB) leukemia) | TGI (LOX IMVI melanoma) | TGI (MDA-N) | TGI (OVCAR-5 ovarian) | TGI (SF-268 CNS) | TGI (UO-31 renal) | GI50 (A549 NSCLC) | GI50 (BT-549 breast) | GI50 (CCRF-CEM leukemia) | GI50 (HL-60(TB) leukemia) | GI50 (LOX IMVI melanoma) | GI50 (MDA-N) | GI50 (UO-31 renal)
O=C(NCCc1ccc(F)cc1)c1cc(/C=C/c2cc(O)ccc2O)ccc1O | 5.03 µM | > 100 µM | 2.97 µM | > 100 µM | 15.4 µM | 14 µM | 9.59 µM | 22.3 µM | 12.2 µM | 3.07 µM | – | – | – | – | – | – | –
C/C(=C/CC[C@](C)(OC1OC(CO)C(O)C(O)C1OC1OC(C)C(O)C(O)C1O)[C@H]1CC[C@]2(C)[C@@H]1CC[C@@H]1[C@@]3(C)CC[C@H](O)C(C)(C)[C@@H]3C[C@H](O)[C@]12C)CO (some centres not stated) | > 100 µM | > 100 µM | > 100 µM | > 100 µM | > 100 µM | > 100 µM | > 100 µM | > 100 µM | > 100 µM | > 100 µM | – | – | – | – | – | – | –
CC(C)=CCC[C@@H](C)c1c(O)c(O)c(C)c2nc3ccccc3nc12 | 12.1 µM | 9.15 µM | 17.1 µM | 0.8 µM | 2.98 µM | 16.8 µM | 15.9 µM | 17.6 µM | 7.22 µM | 5.61 µM | – | – | – | – | – | – | –
CN(CCN(C)Cc1ccc(Cl)c(Cl)c1)CCN1CCCC1 | 64.6 µM | > 100 µM | > 100 µM | 23.6 µM | > 100 µM | > 58.6 µM | 31.4 µM | > 100 µM | > 100 µM | 36 µM | – | – | – | – | – | – | –
COc1cc2[nH]c(=O)[nH]c2c2c(C)c[nH]c12 | > 100 µM | > 100 µM | > 100 µM | > 100 µM | > 100 µM | > 100 µM | > 100 µM | > 100 µM | > 100 µM | > 100 µM | – | – | – | – | – | – | –
O=C1OS2(OC(=O)c3cccc4cccc2c34)c2ccccc21 (configuration not stated) | > 100 µM | > 100 µM | > 100 µM | > 100 µM | > 100 µM | > 100 µM | > 100 µM | > 100 µM | > 100 µM | > 100 µM | – | – | – | – | – | – | –
CC1CCC(O)/C=C/C(=O)OC(C)C(O)/C=C/C(=O)O1 (configuration not stated) | > 100 µM | > 100 µM | > 100 µM | > 79.9 µM | > 79.5 µM | > 100 µM | > 100 µM | > 100 µM | > 100 µM | > 100 µM | – | – | – | – | – | – | –
CC(CCC(=O)O)(c1cc(Br)c(O)c(Br)c1)c1cc(Br)c(O)c(Br)c1 | > 100 µM | > 100 µM | > 100 µM | > 100 µM | > 100 µM | > 100 µM | > 100 µM | > 100 µM | > 100 µM | > 100 µM | – | – | – | – | – | – | –
Cc1cc(S(=O)(=O)Nc2nc(N)n(-c3ccccc3)n2)c(S)cc1Cl | > 100 µM | > 100 µM | > 100 µM | > 100 µM | > 100 µM | > 100 µM | > 100 µM | > 100 µM | > 100 µM | > 100 µM | – | – | – | – | – | – | –
CS(=O)(=O)c1nc(-c2cc3c(c(S(C)(=O)=O)n2)CCC3)cc2c1CCC2 | > 100 µM | > 100 µM | > 100 µM | > 100 µM | > 100 µM | > 100 µM | > 100 µM | > 100 µM | > 100 µM | > 100 µM | – | – | – | – | – | – | –
C/C(=N\NC(=S)N/N=C(\C)c1ccccn1)c1ccccn1 | > 100 µM | > 100 µM | > 100 µM | 1.7 µM | > 100 µM | > 100 µM | > 100 µM | > 100 µM | 16.3 µM | 5.31 µM | – | – | – | – | – | – | –
COC(=O)/C=C1\C(=O)N(C(C)=O)c2ccccc21 | 20.9 µM | > 57.6 µM | 27.4 µM | 10.1 µM | 5.61 µM | 18.7 µM | 25.2 µM | 59.1 µM | > 61.3 µM | 26.4 µM | – | – | – | – | – | – | –
Nc1nc(-c2ccccc2)cc(-c2ccc(F)cc2)c1-c1ccc(Cl)cc1 | > 100 µM | > 100 µM | > 100 µM | > 100 µM | > 100 µM | > 100 µM | > 100 µM | > 100 µM | > 100 µM | > 100 µM | – | – | – | – | – | – | –
Cc1cc([C@H](C#N)c2nc3ccccc3s2)nc(Cl)n1 | 29.8 µM | > 100 µM | 35.6 µM | > 100 µM | > 100 µM | 10.4 µM | > 100 µM | > 100 µM | 24 µM | 21.3 µM | – | – | – | – | – | – | –
O=C1NC(N2CCOCC2)=N/C1=C\c1ccccc1 | > 100 µM | > 100 µM | > 100 µM | > 100 µM | > 100 µM | > 100 µM | > 100 µM | > 100 µM | > 100 µM | > 100 µM | – | – | – | – | – | – | –
NC(=O)c1ccc(N)nc1 | > 400 µM | > 400 µM | > 400 µM | 394 µM | > 400 µM | > 400 µM | > 400 µM | > 400 µM | > 400 µM | > 400 µM | – | – | – | – | – | – | –
CCCCc1ccc(Nc2nc(N)c3[nH]cnc3n2)cc1 | 33.2 µM | 79.4 µM | 47.9 µM | 52.4 µM | 42.5 µM | 33.3 µM | 32.6 µM | 73.5 µM | 32.8 µM | 27.1 µM | – | – | – | – | – | – | –
Nc1c(Cl)ncnc1NCC1(CO)CCC1 | > 100 µM | > 100 µM | > 100 µM | > 100 µM | > 100 µM | > 100 µM | > 100 µM | > 100 µM | > 100 µM | > 100 µM | – | – | – | – | – | – | –
COC(=O)c1ccc2c(c1)CCN2C(=O)c1cc2c(cc1Br)OCO2 | 27.4 µM and > 100 µM | 50 µM and > 100 µM | 45.5 µM and 5.57 µM | 50 µM and > 100 µM | 10.2 µM and 17.1 µM | 50 µM and 94.7 µM | 0.244 µM and 0.841 µM | > 50 µM | 50 µM | 24.8 µM and 72.1 µM | 3.27 µM | 424 nM | 742 nM | 310 nM | 936 nM | 252 nM | 817 nM
O=c1[nH]/c(=C/c2cccs2)c(=O)[nH]/c1=C/c1ccc(OCc2ccccc2)cn1 | 25.6 µM | > 55.9 µM | 3.75 µM | 4.34 µM | 0.244 µM | > 100 µM | 0.0766 µM | > 69.5 µM | > 36.3 µM | > 100 µM | – | – | – | – | – | – | –
